According to patent publication US4468511A, “C-20- And C-23-Modified macrolide derivatives” (Eli Lilly and Company, priority 1983, dated 1984):
In brackets after ≈: the same amount, converted by molar mass. Read-outs that look alike come from different tables or passages of the source.

Columns and labels:
Type in all cases: cell-based
[1] = tested on: Staphylococcus aureus S13E; assay: microbe, parasite or virus in culture
Procedure: (§1) The MIC's in Table II were determined by standard agar-dilution assays. The MIC's in Table III were obtained using a conventional broth-dilution microtiter test.

[2] = tested on: Staphylococcus epidermidis EPI1; assay: microbe, parasite or virus in culture
Procedure: as §1

[3] = tested on: Staphylococcus aureus X400; assay: MIC, standard agar-dilution assay; settings: Staphylococcus aureus, X400
Procedure: as §1

[4] = tested on: Staphylococcus epidermidis EPI2; assay: MIC, standard agar-dilution assay
Procedure: as §1

[5] = tested on: Haemophilus influenzae 76; assay: MIC, standard agar-dilution assay
Procedure: as §1

[6] = tested on: Haemophilus influenzae C.L.; assay: MIC, standard agar-dilution assay
Procedure: as §1

[7] = tested on: Pasteurella multocida 17E; assay: MIC, conventional broth-dilution microtiter test
Outline: (§2)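 Two formats were used. Broth dilution in microtiter plates served for Pasteurella and Mycoplasma, while agar dilution served for Klebsiella.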

[8] = tested on: Streptococcus sp. 80; assay: MIC, conventional broth-dilution microtiter test; settings: broth-dilution microtiter; Streptococcus sp. 80; read-out: MIC
Procedure: (§3) Certain of the derivatives are active against some gram-negative bacteria, such as Pasteurella species. The MIC's in Table II were determined by standard agar-dilution assays. The MIC's in Table III were obtained using a conventional broth-dilution microtiter test.

[9] = tested on: Mycoplasma synoviae; assay: MIC, conventional broth-dilution microtiter test; settings: Mycoplasmopsis synoviae; broth-dilution microtiter; Mycoplasma synoviae; read-out: MIC
Outline: (§4)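 Agar plates containing graded compound levels gave the Klebsiella value. Graded broth dilutions in microtiter plates gave the Pasteurella and Mycoplasma values.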

[10] = tested on: Mycoplasma hyorhinis; assay: MIC, conventional broth-dilution microtiter test; settings: broth-dilution microtiter; Mycoplasma hyorhinis; read-out: MIC
Outline: as §4

[11] = tested on: Pasteurella multocida 22A; assay: MIC, conventional broth-dilution microtiter test; settings: broth-dilution microtiter; Pasteurella multocida 22A; read-out: MIC
Outline: as §2

[12] = tested on: Pasteurella multocida 60A; assay: MIC, conventional broth-dilution microtiter test; settings: broth-dilution microtiter; Pasteurella multocida 60A, Avian isolate; read-out: MIC
Outline: as §2

[13] = tested on: Pasteurella multocida 40G; assay: MIC, conventional broth-dilution microtiter test; settings: broth-dilution microtiter; Pasteurella multocida 40G; read-out: MIC
Outline: as §2

[14] = tested on: Mycoplasma gallisepticum 34159; assay: MIC, conventional broth-dilution microtiter test; settings: Mycoplasmoides gallisepticum; broth-dilution microtiter; Mycoplasma gallisepticum 34159, Resistant strain; read-out: MIC
Outline: as §2

[15] = tested on: Pasteurella multocida 68C; assay: MIC, conventional broth-dilution microtiter test; settings: broth-dilution microtiter; Pasteurella multocida 68C; read-out: MIC
Outline: as §2

[16] = tested on: Pasteurella hemolytica 22C; assay: MIC, conventional broth-dilution microtiter test; settings: broth-dilution microtiter; Pasteurella hemolytica 22C; read-out: MIC
Outline: as §2

[17] = tested on: Staphylococcus aureus; assay: MIC, conventional broth-dilution microtiter test; settings: broth-dilution microtiter, read-out: MIC
Procedure: as §3

[18] = tested on: Mycoplasma gallisepticum; assay: MIC, conventional broth-dilution microtiter test; settings: Mycoplasmoides gallisepticum; broth-dilution microtiter; Mycoplasma gallisepticum; read-out: MIC
Outline: as §2

[19] = tested on: Pasteurella hemolytica 23C; assay: MIC, conventional broth-dilution microtiter test; settings: broth-dilution microtiter; Pasteurella hemolytica 23C; read-out: MIC
Outline: as §2

[20] = tested on: Mycoplasma gallisepticum 41313; assay: MIC, conventional broth-dilution microtiter test; settings: Mycoplasmoides gallisepticum; broth-dilution microtiter; Mycoplasma gallisepticum 41313, Resistant strain; read-out: MIC
Outline: as §2

[21] = tested on: Pasteurella hemolytica 41D; assay: MIC, conventional broth-dilution microtiter test; settings: broth-dilution microtiter; Pasteurella hemolytica 41D; read-out: MIC
Outline: as §2

[22] = tested on: Streptococcus Group D X66; assay: MIC, standard agar-dilution assay
Procedure: as §3

[23] = tested on: Staphylococcus aureus V41; assay: MIC, standard agar-dilution assay; settings: Staphylococcus aureus, V41
Procedure: as §3

[24] = tested on: Klebsiella pneumoniae X26; assay: MIC, standard agar-dilution assay; settings: agar-dilution; Klebsiella pneumoniae X26; read-out: MIC
Outline: as §4

[25] = tested on: Streptococcus pyogenes 9960; assay: MIC, standard agar-dilution assay; settings: agar-dilution, Streptococcus 9960, read-out: MIC
Procedure: as §3

[26] = tested on: Staphylococcus aureus X1.1; assay: MIC, standard agar-dilution assay; settings: Staphylococcus aureus, X1.1
Outline: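 A standard agar-dilution assay was used to test compounds against the Staphylococcus aureus isolate X1.1. Bacterial growth on agar with different compound concentrations was assessed, and the minimum inhibitory concentration was recorded in ug/mL.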

[27] = tested on: Klebsiella pneumoniae KAE; assay: MIC, standard agar-dilution assay
Outline: as §2

[28] = tested on: Escherichia coli TEM; assay: MIC, standard agar-dilution assay; settings: agar-dilution; Escherichia coli TEM; read-out: MIC
Outline: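 Antibacterial activity toward the gram-negative organism Escherichia coli was assessed by conventional agar dilution. The MIC, reported in ug/mL, is the minimum compound concentration on agar that prevents growth.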

[29] = tested on: Streptococcus pneumoniae Park I; assay: MIC, standard agar-dilution assay
Procedure: as §3

[30] = tested on: Streptococcus pyogenes C203; assay: MIC, standard agar-dilution assay
Procedure: as §3

[31] = tested on: Escherichia coli EC14; assay: MIC, standard agar-dilution assay
Procedure: as §3

| SMILES | MIC [1] | MIC [3] | MIC [8] | MIC [9] | MIC [10] | MIC [11] | MIC [12] | MIC [13] | MIC [14] | MIC [15] | MIC [16] | MIC [17] | MIC [18] | MIC [19] | MIC [20] | MIC [21] | MIC [23] | MIC [24] | MIC [25] | MIC [26] | other results |
| --- | --- | --- | --- | --- | --- | --- | --- | --- | --- | --- | --- | --- | --- | --- | --- | --- | --- | --- | --- | --- | --- |
| CCC1OC(=O)CC(O)C(C)C(OC2OC(C)C(O)C(N(C)C)C2O)C(CCO)CC(C)C(=O)C=CC(C)=CC1CN1CCCCCCC1 (centres unmarked) [Compound 58, 20-Dihydro-23-Octahydroazocin-1-yl-23-deoxy-OMT] | 0.5 µg/mL (≈ 0.719 µM) | 1 µg/mL (≈ 1.44 µM) | 1.56 µg/mL (≈ 2.24 µM) | 6.25 µg/mL (≈ 8.99 µM) | 25 µg/mL (≈ 36 µM) | 1.56 µg/mL (≈ 2.24 µM) | 0.78 µg/mL (≈ 1.12 µM) | 0.39 µg/mL (≈ 0.561 µM) | > 50 µg/mL | 1.56 µg/mL (≈ 2.24 µM) | 0.78 µg/mL (≈ 1.12 µM) | 0.78 µg/mL (≈ 1.12 µM) | 0.39 µg/mL (≈ 0.561 µM) | 0.78 µg/mL (≈ 1.12 µM) | 50 µg/mL (≈ 71.9 µM) | 0.39 µg/mL (≈ 0.561 µM) | 0.5 µg/mL (≈ 0.719 µM) | 2 µg/mL (≈ 2.88 µM) | 4 µg/mL (≈ 5.76 µM) | 0.5 µg/mL (≈ 0.719 µM) | MIC ([2]; Staphylococcus epidermidis, EPI1): 0.5 µg/mL (≈ 0.719 µM); MIC ([4]; agar-dilution, Staphylococcus epidermidis EPI2, read-out: MIC): 0.25 µg/mL (≈ 0.36 µM); MIC ([5]; agar-dilution, Haemophilus influenzae 76, Ampicillin-resistant strain, read-out: MIC): 4 µg/mL (≈ 5.76 µM); MIC ([6]; Haemophilus influenzae): 2 µg/mL (≈ 2.88 µM); MIC ([7]; Pasteurella multocida, 17E): 3.12 µg/mL (≈ 4.49 µM); MIC [22]: 2 µg/mL (≈ 2.88 µM); MIC ([27]; Klebsiella pneumoniae): 64 µg/mL (≈ 92.1 µM); MIC [28]: 8 µg/mL (≈ 11.5 µM); MIC ([29]; agar-dilution, Streptococcus pneumoniae Park I, read-out: MIC): 0.25 µg/mL (≈ 0.36 µM); MIC ([30]; agar-dilution, Streptococcus pyogenes C203, read-out: MIC): 0.25 µg/mL (≈ 0.36 µM); MIC ([31]; Escherichia coli, EC14): 64 µg/mL (≈ 92.1 µM) |
| CCC1OC(=O)CC(O)C(C)C(OC2OC(C)C(O)C(N(C)C)C2O)C(CCN(C)C)CC(C)C(=O)C=CC(C)=CC1CO (centres unmarked) [Compound 2, 20-N-Dimethylamino-20-deoxy-20-dihydro-OMT] | 32 µg/mL (≈ 51.1 µM) | 64 µg/mL (≈ 102 µM) | 25 µg/mL (≈ 39.9 µM) | > 50 µg/mL | 50 µg/mL (≈ 79.8 µM) | 25 µg/mL (≈ 39.9 µM) | 25 µg/mL (≈ 39.9 µM) | 50 µg/mL (≈ 79.8 µM) | > 50 µg/mL | 12.5 µg/mL (≈ 19.9 µM) | 50 µg/mL (≈ 79.8 µM) | 50 µg/mL (≈ 79.8 µM) | 50 µg/mL (≈ 79.8 µM) | 50 µg/mL (≈ 79.8 µM) | 50 µg/mL (≈ 79.8 µM) | 50 µg/mL (≈ 79.8 µM) | 32 µg/mL (≈ 51.1 µM) | 16 µg/mL (≈ 25.5 µM) | > 128 µg/mL | 32 µg/mL (≈ 51.1 µM) | MIC ([2]; agar-dilution, Staphylococcus epidermidis EPI1, read-out: MIC): 16 µg/mL (≈ 25.5 µM); MIC ([4]; Staphylococcus epidermidis, EPI2): 64 µg/mL (≈ 102 µM); MIC ([5]; Haemophilus influenzae, 76): 32 µg/mL (≈ 51.1 µM); MIC ([6]; agar-dilution, Haemophilus influenzae C.L., Ampicillin-sensitive strain, read-out: MIC): 16 µg/mL (≈ 25.5 µM); MIC ([7]; broth-dilution microtiter, Pasteurella multocida 17E, Bovine isolate, read-out: MIC): 25 µg/mL (≈ 39.9 µM); MIC ([22]; agar-dilution, Streptococcus Group D X66, read-out: MIC): > 128 µg/mL; MIC ([27]; agar-dilution, Klebsiella pneumoniae KAE, read-out: MIC): > 128 µg/mL; MIC [28]: 128 µg/mL (≈ 204 µM); MIC ([29]; Streptococcus pneumoniae): 32 µg/mL (≈ 51.1 µM); MIC ([30]; Streptococcus pyogenes, C203): 32 µg/mL (≈ 51.1 µM); MIC ([31]; agar-dilution, Escherichia coli EC14, read-out: MIC): > 128 µg/mL |
